“Also recorded” adds a separate entry of the source. Where a name gives a salt, the structure may show the parent alone. Read-outs that look alike come from different tables or passages of the source.
Columns and labels:
rats = experiment: Rat sleep-wake bioassay (EEG, EMG, locomotor activity, body temperature); type: in vivo, Wistar rats; conditions: for LMA versus vehicle control: administered at CT-5, first hour after treatment
Protocol: Rat preparation, monitoring, and analysis of the data was conducted as described below. […] Body temperature and locomotor activity were monitored via a miniature transmitter (Minimitter) surgically placed in the abdomen. The cranial implant consisted of stainless steel screws (2 frontal [+3.9 AP form bregma, ±2.0 ML] and two occipital [-6.4 AP, ±5.5 ML]) for EEG recording. Two Teflon-coated steel wires were positioned under the nuchal trapezoid muscles for EMG recording. All leads were soldered to a miniature connector prior to surgery, and chemically sterilized in Glutarex (3M Co.). The implant assembly was affixed to the skull with dental acrylic. A minimum of three weeks was allowed for recovery.
Each rat was permanently housed in its own individual recording cage located within separate, ventilated compartments of custom-designed stainless steel cabinets. Each Nalgene microisolator cage, which is an individual recording cage, was enhanced with a filter-top riser and swivel-commutator. Food and water were available ad libitum. […] Animals were undisturbed for three days both before and after treatments. In practice, animals were undisturbed during the weekend. Treatments were administered on Monday evening or Tuesday morning, and the animals were again left undisturbed until Friday, when cages were cleaned and the data copied off the computers.
The computers monitored the EEG, EMG, body temperature and non-specific locomotor activity (LMA) via telemetry, and drinking activity from 48 rats simultaneously. The computer classified the arousal state every 10 seconds using pattern-matching algorithms which included behavior-dependent contextual rules. Drinking and LMA were recorded every 10 seconds, while body temperature was recorded every minute.
Therefore, time of treatment is important. By administering the drug at CT-18, which is the peak of the rat's activity dominated period, the natural tendency for the rats to sleep at lights on ([…] clock time or Circadian Time, CT-0) cannot mask the hypnotic activity of the drug. By administering the drug at CT-5 when the propensity for REM sleep is greatest, the drug's effect on REM sleep can be measured more accurately. The activity dominated period begins when the lights are turned off at CT-12 or 15:00 clock time on the Figures.
The drugs and controls were injected intraperitoneally or administered orally in a volume of 1 ml/kg or […], respectively, under dim red illumination for the CT-18 studies or under regular light for the CT-5 studies.
A matched control group, N=20, was selected from a pool of 60 available control candidates. These matched control groups were constructed as follows.

[1] = molecular target: steroid site on the GABAA receptor-chloride channel complex; experiment: [35S]TBPS binding assay; parameters: species or system Male Sprague-Dawley rats; conditions: inhibition of [35S]TBPS (2 nM) binding, rat cerebral cortex P2 membranes, 5 µM GABA, 90 minute incubation at 22°C
Protocol: TBPS binding assays were conducted according to the following procedures, which are described in Gee, K.W.; Lawrence, L.J.; and Yamamura, H. I., "Modulation of the Chloride Ionophore by Benzodiazepine Receptor Ligands Influence of Gamma-Aminobutyric Acid and Ligand Efficacy," Molecular Pharmacology, 30:218, 1986. Male Sprague-Dawley rats (200-250g) were anesthetized with carbon dioxide and decapitated. The rats' brains were removed and the cerebral cortices were dissected and homogenized in 10 volumes of 0.32 M sucrose. Tissue was centrifuged at 1000 x g for 10 minutes and the resultant supernatant was centrifuged at 9,000 g for 20 minutes. The resultant pellet was resuspended in 10 volumes of 200 mM NaCl/50 mM Na-K phosphate pH 7.4 buffer (binding buffer) and then centrifuged at 9,000 x g for 10 minutes. This washing procedure was repeated twice and the final P2 pellet was resuspended in the binding buffer. For the binding assay, [^35S] TBPS (2 nM) was co-incubated in binding buffer with P2 membranes and 5 µM GABA and either 1) no additions to measure total binding; 2) 2 µM unlabeled TPBS to measure nonspecific binding; 3) the neurosteroid ranging in concentration from 1 Nm to 10µM. Following a 90 minute incubation at 22°C, the suspension was filtered and the bound radioactivity was determined by liquid scintillation counting. […] A lower IC50 indicates higher affinity for the steroid site on the GABAA receptor-chloride channel complex. Table 1 gives the IC50 values of representative steroids used in the present invention.

[2] = administered at CT-18, first few hours after administration

Row | Compound | IC50 [1] [nM] | further results
1 | Cc1ccc(-c2nc3ccc(C)cn3c2CC(=O)N(C)C)cc1 [Zolpidem, reference compound] | – | LMA after the hypnotic action has worn off (rats): continues to depress LMA; also recorded: reduced body temperature and locomotor activity; REM sleep (rats): strongly interfered with REM sleep; body temperature (rats): affect body temperature; also recorded: reduced body temperature; rebound insomnia / rebound wakefulness / rebound effects (rats): did not produce rebound insomnia; NREM sleep / hypnotic effect (rats; administered at CT-5): unable to effectively induce NREM sleep; REM sleep (rats; administered at CT-5): interferes with REM sleep; LMA versus vehicle control (rats): reduced LMA below vehicle control levels; REM sleep (rats; [2]): reduced REM sleep
2 | C#C[C@@]1(O)CC[C@@]2(C)[C@@H](CC[C@@H]3[C@@H]2CC[C@]2(C)[C@@H](C(C)=O)CC[C@@H]32)C1 [3β-ethynyl-3α-hydroxy-5α-pregnan-20-one, 3β-Ethynyl-3α-hydroxy-5α-pregnan-20-one] | – | REM sleep (rats): slight REM-interference; NREM sleep (rats; administered at CT-5 or CT-18): potent NREM-promoting effect
3 | Cc1cccc([C@H](C)c2cnc[nH]2)c1C [Dexmedetomidine, reference compound] | – | REM sleep (rats): strongly interfered with REM sleep; rebound insomnia / rebound wakefulness / rebound effects (rats): strong rebound effects
4 | Cc1nnc2n1-c1ccc(Cl)cc1C(c1ccccc1Cl)=NC2 [Triazolam, reference compound] | – | LMA after the hypnotic action has worn off (rats): reduced body temperature and locomotor activity; body temperature (rats): affect body temperature; also recorded: reduced body temperature; NREM sleep / hypnotic effect (rats; administered at CT-5): no hypnotic effect; LMA versus vehicle control (rats): reduced LMA below vehicle control levels; REM sleep (rats; [2]): reduced REM sleep
5 | COC[C@@]1(O)CC[C@@]2(C)[C@H](CC[C@@H]3[C@@H]2CC[C@]2(C)[C@@H](C(C)=O)CC[C@@H]32)C1 [3α-hydroxy-30-methoxymethyl-5β-pregnan-20-one] | 40 | –
6 | CC(C)(O)[C@H]1CC[C@H]2[C@@H]3CC[C@H]4C[C@H](O)CC[C@]4(C)[C@H]3CC[C@]12C [3α,20-dihydroxy-20-methyl-5α-pregnane] | 151 | –
7 | C[C@]12CC[C@H]3[C@@H](CC[C@@H]4C[C@@](O)(C(F)(F)F)CC[C@@H]43)[C@@H]1CC[C@@H]2C(=O)CO [3α, 21-Dihydroxy-3β-trifluoromethyl-19-nor-5β-pregnan-20-one] | 265 | –
8 | C#C[C@@]1(O)CC[C@@]2(C)[C@@H](CC[C@@H]3[C@@H]2CC[C@]2(C)[C@@H](C(=O)CO)CC[C@@H]32)C1 [3α,21-Dihydroxy-3β-ethynyl-5α-pregnan-20-one] | 216 | –
9 | C/C=C1/CC[C@H]2[C@@H]3CC[C@@H]4C[C@H](O)CC[C@@H]4[C@H]3CC[C@]12C [3α-Hydroxy-5β-19-nor-pregn-17(z) ene] | 209 | –
10 | C#C[C@@]1(O)CC[C@@]2(C)[C@H](CC[C@@H]3[C@@H]2CC[C@]2(C)[C@@H](C(C)=O)CC[C@@H]32)C1 [3β-ethynyl-3α-hydroxy-5β-pregnan-20-one] | 39 | REM sleep (rats): lack an inhibitory effect on REM sleep; body temperature (rats): minimal effect on body temperature; duration of uninterrupted NREM sleep (sleep bout length) (rats): strong increase; reduction in LMA over time (rats; 18 mg/kg at CT-18): moderately smaller reduction; rebound reduction of NREM sleep (rats; administered at CT-18): no rebound reduction of NREM sleep
11 | 3α-Hydroxy-3β-trifluoromethyl-5β-19-nor-pregn-17(20)-ene | 482 | –
12 | CCCCCCC#C[C@@]1(O)CC[C@@]2(C)[C@H](CC[C@@H]3[C@@H]2CC[C@]2(C)[C@@H](C(C)=O)CC[C@@H]32)C1 [3β-(1-Octynyl)-3α-hydroxy-5β-pregnan-20-one] | 63 | –
13 | C/C=C1/CC[C@H]2[C@@H]3CC[C@H]4C[C@H](O)CC[C@@H]4[C@H]3CC[C@]12C [3α-hydroxy-19-nor-5α-pregnan-cis-17(20)-ene] | 373 | –
14 | CC(=O)[C@H]1CC[C@H]2[C@@H]3CC[C@@H]4C[C@@](O)(C#CCC(C)OC(=O)CCC(=O)O)CC[C@]4(C)[C@H]3CC[C@]12C (mixture of isomers) [3α-Hydroxy-3β-[4'(R/S)-hydroxypentynyl]-5β-pregnan-20-one 4'(R/S)-hemisuccinate sodium salt] | 153 | –
15 | CC(=O)c1ccc(C#C[C@@]2(O)CC[C@@]3(C)[C@H](CC[C@@H]4[C@@H]3CC[C@]3(C)[C@@H](C(C)=O)CC[C@@H]43)C2)cc1 [3β-(4'-Acetylphenyl)ethynyl-3α-hydroxy-5β-pregnan-20-one] | 14 | –
16 | C[C@@H](O)[C@H]1CC[C@H]2[C@@H]3CC[C@@H]4C[C@H](O)CC[C@]4(C)[C@H]3CC[C@]12C [3α,20b-dihydroxy-5β-pregnane] | 206 | –
17 | C[C@H](O)[C@H]1CC[C@H]2[C@@H]3CC[C@H]4C[C@](C)(O)CC[C@]4(C)[C@H]3CC[C@]12C [3α,20a-dihydroxy-30-methyl-5α-pregnane] | 166 | –
18 | C/C=C1/CC[C@H]2[C@@H]3CC[C@@H]4C[C@H](O)CC[C@]4(C)[C@H]3CC[C@]12C [3α-hydroxy-5β-pregnan-cis(Z)-17(20)-ene] | 180 | –
19 | C[C@]12CC[C@@H](O)C[C@@H]1CC[C@@H]1[C@@H]2CC[C@]2(C)[C@@H](CO)CC[C@@H]12 [3α-hydroxy-17b-hydroxymethyl-5α-androstane-] | 455 | –
20 | CC/C=C1/CC[C@H]2[C@@H]3CC[C@@H]4C[C@H](O)CC[C@]4(C)[C@H]3CC[C@]12C [3α-hydroxy-21-methyl-5β-pregnan-17(20)(Z)-ene] | 217 | –
21 | CC(=O)OCC(=O)[C@H]1CC[C@H]2[C@@H]3CC[C@@H]4C[C@@](O)(C(F)(F)F)CC[C@]4(C)[C@H]3CC[C@]12C [3α,21-Dihydroxy-3β-trifluoromethyl-5β-pregnan-20-one, 21-acetate] | 370 | –
22 | C[C@]12CC[C@@H](O)C[C@H]1CC[C@@H]1[C@@H]2CC[C@]2(C)[C@@H](C(=O)CO)CC[C@@H]12 [3α,21-dihydroxy-50-pregnan-20-one] | 180 | –
23 | COC[C@@]1(O)CC[C@@]2(C)[C@@H](CC[C@@H]3[C@@H]2CC[C@]2(C)[C@@H](C(C)=O)CC[C@@H]32)C1 [3α-hydroxy-3β-methoxymethyl-5α-pregnan-20-one] | 67 | –
24 | CC(=O)[C@H]1CC[C@H]2[C@@H]3CC[C@@H]4C[C@@](O)(C#Cc5ccccc5O)CC[C@]4(C)[C@H]3CC[C@]12C [3β-(2'-Hydroxyphenyl)ethynyl-3α-hydroxy-5β-pregnan-20-one] | 192 | –
25 | CC(=O)[C@H]1CC[C@H]2[C@@H]3CC[C@H]4C[C@@](O)(CN=[N+]=[N-])CC[C@]4(C)[C@H]3CC[C@]12C [3β-azidomethyl-3α-hydroxy-5α-pregnan-20-one] | 34 | –
26 | C#C[C@@]1(O)CC[C@H]2[C@H](CC[C@@H]3[C@@H]2CC[C@]2(C)/C(=C\C)CC[C@@H]32)C1 [3β-Ethynyl-3α-hydroxy-5β-19-nor-pregn-17(z)-ene] | 460 | –
